This assay concerns the target T1, CCR1 (Homo sapiens, UniProt P32246).
T1 sequence (P32246 1-355): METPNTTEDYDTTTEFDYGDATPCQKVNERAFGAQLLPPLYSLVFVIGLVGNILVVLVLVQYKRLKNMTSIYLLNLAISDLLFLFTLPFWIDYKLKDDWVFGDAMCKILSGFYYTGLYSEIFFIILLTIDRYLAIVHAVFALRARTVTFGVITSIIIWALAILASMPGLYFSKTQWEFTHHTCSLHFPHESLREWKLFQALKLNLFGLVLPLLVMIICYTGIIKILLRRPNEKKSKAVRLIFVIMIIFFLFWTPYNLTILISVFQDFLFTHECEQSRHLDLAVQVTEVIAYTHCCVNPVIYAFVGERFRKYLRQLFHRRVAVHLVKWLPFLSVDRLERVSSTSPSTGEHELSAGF
Description: Membrane-based NanoBRET saturation binding assay, CCR1_Nluc membranes from HEK293T cells. Also on record: Promega pNLF1-C (Nluc) #CCR010TN00; host or cells: HEK293T, transient (PEI). The settings on record: saturation binding of fluorescent ligand, read-out: KD (equilibrium, KD(eq.)). An excerpt: To evaluate the CCR1 affinity of previously reported (8–9) and new fluorescently labeled pyrrolones (11–12), we developed a NanoBRET-based binding assay (Figures 4A–H and S2A–J). To this end, we used a previously reported CCR1 construct (hereafter referred to as CCR1_Nluc) with a small and bright luciferase variant (nanoluciferase,[52] Nluc), fused to the intracellular C-terminus of CCR1 (Figures 4A and S2A).[47] […] This was expected, given the very low CCR2/CCR1 selectivity of the parental ligands 4 and 5 (Figure 1).[33] For further studies, we selected 12 due to its highest CCR1 affinity.
Cell culture: HEK293T cells were cultured as previously described.8 In brief, HEK293T cells (gift from Chair of Physiology, Prof. Dr. Alzheimer, FAU Erlangen-Nürnberg) were grown on 10 cm culture dishes at 37 °C and 5% CO2. As growth medium, Dulbecco's Modified Eagle Medium (DMEM)/F12 (Invitrogen) supplemented with 10% fetal bovine serum (FBS, Gibco™ Fetal Bovine Serum, qualified, Brazil), L-glutamine (final concentration: 2 mM; from Gibco™ L-glutamine 200 mM, 100X), penicillin (final concentration: 100 units/mL), and streptomycin (final concentration: 100 µg/mL; from Gibco™ Penicillin-Streptomycin 10,000 U/mL) was used. Cells were split every three to four days and regularly confirmed to be free of mycoplasma contamination using the luminescence-based MycoAlert Plus Kit (Lonza).
Transient transfection using polyethylenimine: For transfection, we used a previously published procedure.8 In brief, HEK293T cells were plated onto culture dishes (Ø 10 cm or Ø 15 cm) and grown to a confluence of approximately 50% at 37 °C and 5% CO2. The growth medium was renewed one-hour before transfection. The transfection mix was prepared, as described in the following. Solution A (0.4-2.2% total DNA (1-5.5 µg) in Gibco™ phosphate buffered saline, pH 7.4) and solution B (3% PEI (linear, 25 kDa, from Polysciences) solution prepared from a PEI stock solution (0.4 µg/µL) in PBS without MgCl2 and CaCl2) were mixed one to one, the resulting mixture was vortexed for 5 s and incubated for 30 min at room temperature. The pre-incubated transfection mix was added dropwise to the cells and cell cultivation was continued […]
Membrane preparation: Membranes were prepared as previously reported.8 In brief, membranes from HEK293T cells transiently expressing the respective GPCR were prepared as follows. The medium of the transfected cells was refreshed after 24 h before cells were harvested 48 h post-transfection. […]
Finally, the protein concentration was determined using the Lowry method.9 cDNA constructs: The CCR1-Nluc fusion construct (CCR1_Nluc) in pcDNA3.1 was generated as previously reported1 using the Gibson Assembly10 (New England Biolabs) method. […]
(Bioluminescence resonance energy transfer reports proximity on the nanometre scale.)

For `CN(C)c1ccc2c(-c3cc(C(=O)NCCOCCOCc4cn(CCCC(=O)C5=C(O)C(=O)N(c6ccc(Cl)cc6F)C5C5CCCCC5)nn4)ccc3C(=O)[O-])c3ccc(=[N+](C)C)cc-3oc2c1` (centres unmarked) [compound 11], the Kd (as a rule, the concentration at which binding is half-saturated) worked out at 3170 ± 370 nM.

With `CN(C)c1ccc2c(-c3cc(C(=O)NCCOCCOCc4cn(CCCC(=O)C5=C(O)C(=O)N(c6ccc(Br)cc6F)C5C5CCCCC5)nn4)ccc3C(=O)[O-])c3ccc(=[N+](C)C)cc-3oc2c1` (centres unmarked) [compound 12], the Kd was 1900 ± 180 nM.

Source of the values: paper PMC11249626, “Fluorophore-Labeled Pyrrolones Targeting the Intracellular Allosteric Binding Site of the Chemokine Receptor CCR1” (ACS Pharmacology & Translational Science, 2024).
